The results in this text go back to patent publication US20210077501A1, “COMPOSITIONS FOR PREVENTING OR TREATING UVEITIS” (Chong Kun Dang Pharmaceutical Corp., priority 2018, published 2021).

Data set [1] relates to reactive T cells. Kind of data set: Treg suppression assay: proliferation of reactive T cells (eFluor670 dilution, flow cytometry). The conditions noted are these: Teff:Treg 2:1, three days; concentration not specified. It is filed as cell-based, mouse. On the procedure: To identify the efficacy of the inventive compounds on suppressing the proliferation of reactive T cells in immune responses, compounds 255, 280, 374, 416 and 476 according to the present invention were cultured together with reactive T cells and regulatory T cells […], and then the suppressive efficacy of regulatory T cells was measured.
Specifically, a six-week old C57BL6 male mice were supplied from Central Lab Animal Inc., then acclimated for one week, and then used in an experiment. A spleen was isolated from the mouse, and then treated with collagenase D (Roche, 11088866001), such that splenocytes were isolated therefrom. […] were isolated by means of a CD4+CD25+ regulatory T cell isolation kit (Miltenyi Biotec, 130-091-041) according to a protocol provided by a manufacturer. Teff cells were cultured at 37° C. for ten minutes by means of eFluor®670 (Cell proliferation Dye eFluor®670, eBioscience), such that cell membranes were stained. Teff and Treg were divided into a 96 well plate at a ratio of 2:1, and then T cells were activated for three days by means of an anti-CD3E and anti-CD28 mAb magnetic bead (T cell activation/expansion kit, Miltenyi Biotec, 130-093627), such that Treg suppression assay was performed. A test drug was simultaneously treated for three days, during which the assay was performed. The divided amount of eFluor®670 labeled on the Teff cell membranes was measured, such that a degree of proliferation of T cells was evaluated accordingly. An eFluor®670-dilution plot was measured by means of a flow cytometer (FACS LSR Fortessa, BD bioscience). The suppressive ability on T cells proliferation was calculated by means of a following equation.

In data set [2] the test system is CTLA4 (cytotoxic T-lymphocyte-associated protein 4) in the regulatory T cells. In words: CTLA4 expression in regulatory T cells (iTreg) by flow cytometry. To be noted: for level of CTLA4 expression in the T cells (function of regulatory T cells): iTreg, six days treatment, concentration not specified. The data set is classed as cell-based, mouse. On the procedure:
To identify if the compounds according to the present invention regulate a function of regulatory T cells in immune responses, compounds 255, 280, 374, 416 and 476 were treated, and then an expression level of an immune checkpoint receptor CTLA4 (cytotoxic T-lymphocyte-associated protein 4) in the regulatory T cells was measured by means of flow cytometry.
Specifically, a six-week old C57BL6 male mice were supplied from Central Lab Animal Inc., then acclimated for one week, and then used in an experiment. A spleen was isolated from the mouse, and then treated with collagenase D (Roche, 11088866001), such that splenocytes were isolated therefrom. CD4+CD25-T cells were isolated by means of a CD4+CD25+ regulatory T cell isolation kit (Miltenyi Biotec, 130-091-041), and then CD4+CD25-T cells (at a ratio of 5×10^5 cells/well) were treated with an anti-CD3E/anti-CD28 mAb bead (T cell activation/expansion kit, Miltenyi Biotec, 130-093627) and a mouse recombinant TGF-β2 for six days, such that they were differentiated into iTreg. A test drug was simultaneously treated for six days, during which the cells were differentiated into iTreg. After that, the cells were incubated by means of anti-CD4/anti-CD25 mAb (eBioscience, 25-0042-82, 17-0251-82) at 4° C. for 20 minutes, and then labeling was performed. For intracytoplasmic staining, permeabilization was performed by means of Fix/permeabilization buffer (eBioscience, 00-5523-00), then labeling was performed by means of anti-FOXP3-Alexafluor488 (eBioscience, 53-5773-82) and anti-CTLA4-PE (eBioscience, 12-1522-82), and then flow cytometry was performed by means of FACS LSR Fortessa (BD bioscience).
On the technique in general: Flow cytometry measures light scatter and fluorescence of single cells or particles in a stream.

The test system of data set [3] is TNFα secretion in LPS-stimulated human monocyte cell lines (THP-1). Kind of data set: Suppression of TNFα secretion in LPS-stimulated THP-1 cells (ELISA). It is filed as cell-based. As to the method:
To identify the efficacy of the inventive compounds on suppressing a TNFα secretion in immune responses, suppression of TNFα production, which was achieved by a treatment with compounds 374, 461, 500, 530 and 532 according to the present invention in LPS-stimulated human monocyte cell lines (THP-1), was quantified by means of an enzyme immuno-assay (ELISA).
Specifically, the THP-1 cell lines (ATCC) were cultured in an RPMI-1640 medium comprising 10% FBS. The cell lines were divided into a 24 well plate at a ratio of 1×10^5 cells per well, then treated with 100 ng/mL PMA (phorbol 12-myristate 13-acetate) for 24 hours, and then differentiated into macrophage. Then, the culture medium was replaced with a new one, then treated with a test drug for 24 hours, and then treated again with 10 ng/mL LPS (E.Coli, O55:B5) for four hours for stimulation. After that, supernatant was taken and used to measure the amount of TNFα secreted from the cells by means of a Human TNFα Instant ELISA kit (eBioscience, BMS223INST) according to a protocol provided by a manufacturer.
Background: In an ELISA, binding on a coated surface is turned into a signal by an enzyme label.

Setting [4] is: THP-1, LPS, at both 100 nM and 300 nM.
[5] abbreviates: in comparison with LPS-induced control group, THP-1, concentration not specified.
[6] abbreviates: THP-1, LPS, on increasing concentration of compound treatment from 100 nM to 300 nM.

As to `O=C(NO)c1ccc(CN(C(=O)N2CCOCC2)c2cccc(Br)c2)cc1` [Compound 255, N-(3-bromophenyl)-N-(4-(hydroxycarbamoyl)benzyl)morpholine-4-carboxamide], the “proliferation of the reactive T cells” value in data set [1] is “excellent effect”. Further, the “level of CTLA4 expression in the T cells (function of regulatory T cells)” value (shortened to “level of CTLA4 expression in the T cells”) in data set [2] is reported as “excellent effect”. The cytotoxicity result in data set [2] (treated at 1000 nM, data analysis not performed) is reported as “severe cytotoxicity”.
Consider `O=C(NO)c1ccc(CN(C(=O)N2CCOCC2)c2ccccn2)cc1` [Compound 280, N-(4-(hydroxycarbamoyl)benzyl)-N-(pyridine-2-yl)morpholine-4-carboxamide], for which the “proliferation of the reactive T cells” value in data set [1] is reported as “excellent effect”. Moreover, in data set [2], the “level of CTLA4 expression in the T cells” value is on record as “excellent effect”.
Turning to `CN1CCN(C(=O)N(Cc2ccc(C(=O)NO)cc2)c2ccc(F)cc2F)CC1` [Compound 416, N-(2,4-difluorophenyl)-N-(4-(hydroxycarbamoyl)benzyl)-4-methylpiperazine-1-carboxamide], the “proliferation of the reactive T cells” value in data set [1] is “excellent effect”. In addition, in data set [2], the “level of CTLA4 expression in the T cells” value is given as “excellent effect”.
As to `CCN1CCN(C(=O)N(Cc2ccc(C(=O)NO)cc2)c2cccc(C(F)(F)F)c2)CC1` [Compound 461, 4-ethyl-N-(4-(hydroxycarbamoyl)benzyl)-N-(3-(trifluoromethyl)phenyl)piperazine-1-carboxamide], the “level of TNFα secretion” value was “remarkably decreased down to a level at which no inflammatory response was induced by means of the LPS” in data set [3] (setting [4]) and “excellent effect” in data set [3] (setting [5]).
Turning to `O=C(NO)c1ccc(CN(C(=O)N2CC(F)(F)C2)c2cccc(C(F)(F)F)c2)cc1` [Compound 476, 3,3-difluoro-N-(4-(hydroxycarbamoyl)benzyl)-N-(3-(trifluoromethyl)phenyl)azetidine-1-carboxamide], the “proliferation of the reactive T cells” value in data set [1] is listed as “excellent effect”. The “level of CTLA4 expression in the T cells” value in data set [2] was “excellent effect”.
On to `O=C(NO)c1ccc(CN(C(=O)N2CCOCC2)c2cccc(CF)c2)cc1` [Compound 500, N-(3-(fluoromethyl)phenyl)-N-(4-(hydroxycarbamoyl)benzyl)morpholine-4-carboxamide], for which the results for the “level of TNFα secretion” value in data set [3] (setting [4]) and in data set [3] (setting [5]) were “remarkably decreased down to a level at which no inflammatory response was induced by means of the LPS” and “excellent effect”, respectively.
For the compound `O=C(NO)c1ccc(CN(C(=O)N2CCOCC2)c2cccc(F)c2)cc1` [Compound 530, N-(3-fluorophenyl)-N-(4-(hydroxycarbamoyl)benzyl)morpholine-4-carboxamide], the “level of TNFα secretion” value in data set [3] (setting [6]) is listed as “drastically decreased”; in data set [3] (setting [5]), “excellent effect”.
For the compound `O=C(NO)c1ccc(CN(C(=O)N2CCOCC2)c2cccc(C(F)(F)F)c2)c(F)c1` [Compound 532, N-(2-fluoro-4-(hydroxycarbamoyl)benzyl)-N-(3-(trifluoromethyl)phenyl)morpholine-4-carboxamide], the entries for the “level of TNFα secretion” value in data set [3] (setting [6]) and in data set [3] (setting [5]) were “drastically decreased” and “excellent effect”, respectively.
